Test results: the NIST ThermoML archive (doi:10.1016/j.jct.2014.06.017)

Assay: wn = mass fraction of the nth substance listed
Conditions: 100 kPa, Liquid, Concentric cylinders viscometry

NCCO [2-aminoethan-1-ol] + O
viscosity [mPa·s]
Conditions	298.2 K	303.2 K	313.2 K	323.2 K
w1 = 0.2	1.72	1.53	1.18	0.98
w1 = 0.2499	2.02	1.79	1.32	1.12
w1 = 0.3001	2.32	2.13	1.59	1.31

CN(CCO)CCO [N-methyldiethanolamine] + O
viscosity [mPa·s]
Conditions	298.2 K	303.2 K	313.2 K	323.2 K
w1 = 0.3502	4.07	3.36	2.56	2.02
w1 = 0.4001	5.2	4.41	3.02	2.65
w1 = 0.45	7.62	6.1	4.37	3.63

OCCNCCO [diethanolamine] + O
viscosity [mPa·s]
Conditions	298.2 K	303.2 K	313.2 K	323.2 K
w1 = 0.2001	1.92	1.67	1.32	1.05
w1 = 0.25	2.61	2.16	1.67	1.34
w1 = 0.3001	3.26	2.57	1.99	1.41
